The assay deals with T1, P2X7 receptor (Homo sapiens, UniProt Q99572).
T1 construct: host or cells: SH-SY5Y
T1 sequence (Q99572 1-595): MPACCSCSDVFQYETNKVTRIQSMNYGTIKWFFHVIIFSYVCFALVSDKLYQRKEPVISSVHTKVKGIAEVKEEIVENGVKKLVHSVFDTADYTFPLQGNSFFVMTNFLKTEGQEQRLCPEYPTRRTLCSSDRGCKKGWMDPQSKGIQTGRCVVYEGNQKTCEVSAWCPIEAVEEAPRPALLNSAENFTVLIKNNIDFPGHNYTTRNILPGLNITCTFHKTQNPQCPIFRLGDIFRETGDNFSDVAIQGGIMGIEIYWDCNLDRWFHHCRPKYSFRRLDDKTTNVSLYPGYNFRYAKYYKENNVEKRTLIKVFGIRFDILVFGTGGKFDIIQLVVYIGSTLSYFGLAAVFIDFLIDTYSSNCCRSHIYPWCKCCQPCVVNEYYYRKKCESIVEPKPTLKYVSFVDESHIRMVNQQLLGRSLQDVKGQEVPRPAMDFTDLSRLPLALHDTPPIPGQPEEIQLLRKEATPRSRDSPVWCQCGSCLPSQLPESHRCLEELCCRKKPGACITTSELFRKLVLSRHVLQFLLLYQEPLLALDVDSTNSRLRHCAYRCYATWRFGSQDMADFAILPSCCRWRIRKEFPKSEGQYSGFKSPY
Kind of assay: High throughput P2X7 calcium mobilization assay (Example 4A). Format: cell-based. As to conditions: SH-SY5Y cells; 50% decrease in fluorescence response of cells exposed to 80 μM BzATP; Table I. Put shortly: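 SH-SY5Y cells loaded with 2.3 μM Fluo-4 AM for 1 h at 37 °C, then preincubated 1 h at room temperature with test compound (final 1–2500 nM) in low-sodium sucrose buffer, pH 7.4. Antagonism measured against 80 μM BzATP (about EC50) as peak FLIPR calcium fluorescence over 2 min, corrected by no-agonist background.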
As a reminder, the IC50 is the concentration needed to halve the response being measured. As to `O=C(NCC1(c2ccc(C(F)(F)F)cc2)CCCCC1)c1cn(-c2ncccn2)nc1C(F)(F)F` [Compound 196, 1-pyrimidin-2-yl-3-(trifluoromethyl)-N-({1-[4-(trifluoromethyl)phenyl]cyclohexyl]methyl)-1H-pyrazole-4-carboxamide], the 50% inhibitory concentration (IC50) was at most 2000 nM.
Turning to `O=C(NCC1(c2ccc(Cl)cc2)CCOCC1)c1cn(-c2ncccn2)nc1C(F)(F)F` [Compound 197, N-{[4-(4-chlorophenyl)tetrahydro-2H-pyran-4-yl]methyl}-1-pyrimidin-2-yl-3-(trifluoromethyl)-1H-pyrazole-4-carboxamide], the IC50 is at most 2000 nM.
As to `O=C(NCC1(N2CCOCC2)CCCCC1)c1cn(-c2ncccn2)nc1C(F)(F)F` [Compound 198, N-[(1-morpholin-4-ylcyclohexyl)methyl]-1-pyrimidin-2-yl-3-(trifluoromethyl)-1H-pyrazole-4-carboxamide], the IC50 is at most 2000 nM.
Next, `COc1ccc(C2(CNC(=O)c3cn(-c4ncccn4)nc3C(F)(F)F)CCCCC2)cc1` [Compound 199, N-{[1-(4-methoxyphenyl)cyclohexyl]methyl}-1-pyrimidin-2-yl-3-(trifluoromethyl)-1H-pyrazole-4-carboxamide]: at most 2000 nM; `CC(C)CC(CNC(=O)c1cn(-c2ncccn2)nc1C(F)(F)F)c1ccc(C(F)(F)F)cc1` (centres unmarked) [Compound 200, N-{4-methyl-2-[4-(trifluoromethyl)phenyl]pentyl}-1-pyrimidin-2-yl-3-(trifluoromethyl)-1H-pyrazole-4-carboxamide]: at most 2000 nM.
For `CCCC(CNC(=O)c1cn(-c2ncccn2)nc1C(F)(F)F)c1ccc(Cl)cc1` (centres unmarked) [Compound 201, N-[2-(4-chlorophenyl)pentyl]-1-pyrimidin-2-yl-3-(trifluoromethyl)-1H-pyrazole-4-carboxamide] the value was at most 2000 nM; for `CC(CNC(=O)c1cn(-c2ncccn2)nc1C(F)(F)F)c1ccc(Cl)cc1` (centres unmarked) [Compound 202, N-[2-(4-chlorophenyl)propyl]-1-pyrimidin-2-yl-3-(trifluoromethyl)-1H-pyrazole-4-carboxamide], at most 2000 nM.
Next, `CC(C)CC(CNC(=O)c1cn(-c2ncccn2)nc1C(F)(F)F)c1cccnc1` (centres unmarked) [Compound 203, N-(4-methyl-2-pyridin-3-ylpentyl)-1-pyrimidin-2-yl-3-(trifluoromethyl)-1H-pyrazole-4-carboxamide]: at most 2000 nM; `O=C(NCC1(c2ccc(Cl)cc2)CCC1)c1cn(-c2ncccn2)nc1C(F)(F)F` [Compound 204, N-{[1-(4-chlorophenyl)cyclobutyl]methyl}-1-pyrimidin-2-yl-3-(trifluoromethyl)-1H-pyrazole-4-carboxamide]: at most 2000 nM.
For the compound `O=C(NCC(O)C12CC3CC(CC(C3)C1)C2)c1cn(-c2ncccn2)nc1C(F)(F)F` (centres unmarked) [Compound 205, N-(2-adamantan-1-yl-2-hydroxyethyl)-1-pyrimidin-2-yl-3-(trifluoromethyl)-1H-pyrazole-4-carboxamide], the IC50 is at most 2000 nM.
Next, `CC(C)CCNC(=O)c1cn(-c2ncccn2)nc1C(F)(F)F` [Compound 206, N-(3-methylbutyl)-1-pyrimidin-2-yl-3-(trifluoromethyl)-1H-pyrazole-4-carboxamide]: at most 2000 nM.
For `CCC(CNC(=O)c1cn(-c2ncccn2)nc1C(F)(F)F)c1ccccc1` (centres unmarked) [Compound 207, N-(2-phenylbutyl)-1-pyrimidin-2-yl-3-(trifluoromethyl)-1H-pyrazole-4-carboxamide] the value was at most 2000 nM.
`CCCCCCCC(CNC(=O)c1cn(-c2ncccn2)nc1C(F)(F)F)c1ccccc1` (centres unmarked) [Compound 208, N-(2-phenylnonyl)-1-pyrimidin-2-yl-3-(trifluoromethyl)-1H-pyrazole-4-carboxamide]: the IC50 is at most 2000 nM.
For `CC(C)CC(CNC(=O)c1cn(-c2ncccn2)nc1C(F)(F)F)c1ccccc1` (centres unmarked) [Compound 209, N-(4-methyl-2-phenylpentyl)-1-pyrimidin-2-yl-3-(trifluoromethyl)-1H-pyrazole-4-carboxamide] the value was at most 2000 nM; for `O=C(NCC(CC1CCCC1)c1ccccc1)c1cn(-c2ncccn2)nc1C(F)(F)F` (centres unmarked) [Compound 210, N-(3-cyclopentyl-2-phenylpropyl)-1-pyrimidin-2-yl-3-(trifluoromethyl)-1H-pyrazole-4-carboxamide], at most 2000 nM; for `O=C(NCC(c1ccccc1)C1CCCCC1)c1cn(-c2ncccn2)nc1C(F)(F)F` (centres unmarked) [Compound 211, N-(2-cyclohexyl-2-phenylethyl)-1-pyrimidin-2-yl-3-(trifluoromethyl)-1H-pyrazole-4-carboxamide], at most 2000 nM.
For `CCCCCCC(CNC(=O)c1cn(-c2ncccn2)nc1C(F)(F)F)c1ccccc1` (centres unmarked) [Compound 212, N-(2-phenyloctyl)-1-pyrimidin-2-yl-3-(trifluoromethyl)-1H-pyrazole-4-carboxamide] the value was at most 2000 nM; for `O=C(NCC(CC1CCCCC1)c1ccccc1)c1cn(-c2ncccn2)nc1C(F)(F)F` (centres unmarked) [Compound 213, N-(3-cyclohexyl-2-phenypropyl)-1-pyrimidin-2-yl-3-(trifluoromethyl)-1H-pyrazole-4-carboxamide], at most 2000 nM.
For `O=C(NCC(CCC1CCCCC1)c1ccccc1)c1cn(-c2ncccn2)nc1C(F)(F)F` (centres unmarked) [Compound 214, N-(4-cyclohexyl-2-phenylbutyl)-1-pyrimidin-2-yl-3-(trifluoromethyl)-1H-pyrazole-4-carboxamide] the value was at most 2000 nM; for `CC(CCNC(=O)c1cn(-c2ncccn2)nc1C(F)(F)F)c1ccccc1` (centres unmarked) [Compound 215, N-(3-phenylbutyl)-1-pyrimidin-2-yl-3-(trifluoromethyl)-1H-pyrazole-4-carboxamide], at most 2000 nM.
As for `CC1CC(NC(=O)c2cn(-c3ncccn3)nc2C(F)(F)F)CC(C)(C)C1` (centres unmarked) [Compound 216, 1-pyrimidin-2-yl-3-(trifluoromethyl)-N-(3,3,5-trimethylcyclohexyl)-1H-pyrazole-4-carboxamide], the IC50 is at most 2000 nM.
Next, `O=C(NC1C2CC3CC(C2)CC1C3)c1cn(-c2ncccn2)nc1C(F)(F)F` (centres unmarked) [Compound 217, N-adamantan-2-yl-1-pyrimidin-2-yl-3-(trifluoromethyl)-1H-pyrazole-4-carboxamide]: at most 2000 nM; `O=C(NCCc1ccccc1Br)c1cn(-c2ncccn2)nc1C(F)(F)F` [Compound 218, N-[2-(2-bromophenyl)ethyl]-1-pyrimidin-2-yl-3-(trifluoromethyl)-1H-pyrazole-4-carboxamide]: at most 2000 nM.
With `CCc1nc(-c2ncccn2)sc1C(=O)NCC1(c2cccnc2)CCCCC1` [Compound 219, 4-ethyl-N-[(1-pyridin-3-ylcyclohexyl)methyl]-2-pyrimidin-2-yl-1,3-thiazole-5-carboxamide], the IC50 was at most 2000 nM.
Next, `CCc1nc(-c2ncccn2)sc1C(=O)NCC(CC(C)C)c1ccc(C(F)(F)F)cc1` (centres unmarked) [Compound 220, 4-ethyl-N-{4-methyl-2-[4-(trifluoromethyl)phenyl]pentyl}-2-pyrimidin-2-yl-1,3-thiazole-5-carboxamide]: at most 2000 nM; `CCc1nc(-c2ncccn2)sc1C(=O)NCc1ccc(F)cc1Cl` [Compound 231, N-(2-chloro-4-fluorobenzyl)-4-ethyl-2-pyrimidin-2-yl-1,3-thiazole-5-carboxamide]: at most 2000 nM; `CCc1nc(-c2ncccn2)sc1C(=O)NC1CC(C)CC(C)(C)C1` (centres unmarked) [Compound 236, 4-ethyl-2-pyrimidin-2-yl-N-(3,3,5-trimethylcyclohexyl)-1,3-thiazole-5-carboxamide]: at most 2000 nM.
Next, `CCc1nc(-c2ncccn2)sc1C(=O)NCC12CC3CC(CC(C3)C1)C2` [Compound 247, N-(adamantan-1-ylmethyl)-4-ethyl-2-pyrimidin-2-yl-1,3-thiazole-5-carboxamide]: at most 2000 nM; `CCc1nc(-c2ncccn2)sc1C(=O)NC[C@@H]1CCC2CC1C2(C)C` (stereo partly drawn) [Compound 248, N-{[(2R)-6,6-dimethylbicyclo[3.1.1]hept-2-yl]methyl}-4-ethyl-2-pyrimidin-2-yl-1,3-thiazole-5-carboxamide]: at most 2000 nM.
For `CCc1nc(-c2ncccn2)sc1C(=O)NCC(CC(C)C)c1ccc(Cl)cc1` (centres unmarked) [Compound 249, N-[2-(4-chlorophenyl)-4-methylpentyl]-4-ethyl-2-pyrimidin-2-yl-1,3-thiazole-5-carboxamide] the value was at most 2000 nM; for `CCc1nc(-c2ncccn2)sc1C(=O)NCC1(c2ccc(OC)cc2)CCCCC1` [Compound 250, 4-ethyl-N-{[1-(4-methoxyphenyl)cyclohexyl]methyl)-2-pyrimidin-2-yl-1,3-thiazole-5-carboxamide], at most 2000 nM; for `CCc1nc(-c2ncccn2)sc1C(=O)NCC(CC(C)C)c1ccccc1` (centres unmarked) [Compound 258, 4-ethyl-N-(4-methyl-2-phenylpentyl)-2-pyrimidin-2-yl-1,3-thiazole-5-carboxamide], at most 2000 nM.
